# Laboratory results from BindingDB's records for doi:10.1021/ml400168h (Merck Research Laboratories, 2013).
# Target: Sterol O-acyltransferase 1 / ACAT1 (Homo sapiens) (UniProt P35610)
# Test: Inhibition of human ACAT1
# Chain of Sterol O-acyltransferase 1 / ACAT1 (Homo sapiens) (P35610 whole entry, looked up): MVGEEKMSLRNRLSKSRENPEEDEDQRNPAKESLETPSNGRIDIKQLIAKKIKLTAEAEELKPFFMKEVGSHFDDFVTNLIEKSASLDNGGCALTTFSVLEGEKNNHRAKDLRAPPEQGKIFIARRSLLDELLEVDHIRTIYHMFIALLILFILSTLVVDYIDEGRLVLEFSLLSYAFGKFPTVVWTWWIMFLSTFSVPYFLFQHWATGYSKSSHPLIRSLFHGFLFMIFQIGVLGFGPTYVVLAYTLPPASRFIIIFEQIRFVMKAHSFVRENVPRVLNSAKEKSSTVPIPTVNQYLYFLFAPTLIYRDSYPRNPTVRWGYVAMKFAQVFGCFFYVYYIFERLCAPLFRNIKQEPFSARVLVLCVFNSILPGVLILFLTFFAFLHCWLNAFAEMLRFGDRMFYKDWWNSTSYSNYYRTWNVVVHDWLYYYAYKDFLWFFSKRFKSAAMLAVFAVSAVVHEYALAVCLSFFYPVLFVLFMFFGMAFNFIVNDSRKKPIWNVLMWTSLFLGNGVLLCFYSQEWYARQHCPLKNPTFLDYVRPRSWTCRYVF
row,SMILES,IC50 [µM]
1,N#Cc1ccc2nc(-c3ccc(-c4ccc(O[C@H]5CC[C@H](C(=O)O)CC5)nc4)nc3)[nH]c2c1,> 10
2,O=C(O)[C@H]1CC[C@H](Oc2ccc(-c3ccc(-c4nc5cc(F)c(F)cc5[nH]4)cn3)cn2)CC1,8.44
3,N#Cc1ccc2nc(-c3ccc(-c4ccc(O[C@H]5CC[C@@H](C(=O)O)CC5)nc4)nc3)[nH]c2c1,> 10
4,CS(=O)(=O)c1ccc2nc(-c3ccc(-c4ccc(O[C@H]5CC[C@@H](C(=O)O)CC5)nc4)nc3)[nH]c2c1,> 10
5,O=C(O)[C@H]1CC[C@H](Oc2ccc(-c3ccc(-c4nc5ccc(F)cc5[nH]4)cn3)cn2)CC1,> 10
6,CS(=O)(=O)c1ccc2nc(-c3ccc(-c4ccc(O[C@H]5CC[C@H](C(=O)O)CC5)nc4)nc3)[nH]c2c1,> 10
7,O=C(O)[C@H]1CC[C@@H](Oc2ccc(-c3ccc(-c4nc5cc(F)c(F)cc5[nH]4)cn3)cn2)CC1,> 10
8,O=C(O)[C@H]1CC[C@@H](Oc2ccc(-c3ccc(-c4nc5ccc(F)cc5[nH]4)cn3)cn2)CC1,> 10

# Now those with a lower IC50, led by results:
row,IC50 [µM],SMILES
1,8.08,O=C(O)[C@H]1CC[C@@H](Oc2ccc(-c3ccc(-c4nc5ccccc5[nH]4)cn3)cn2)CC1
2,6.07,O=C(O)[C@H]1CC[C@H](Oc2ccc(-c3ccc(-c4nc5ccccc5[nH]4)cn3)cn2)CC1
3,4.9,COc1ccc2[nH]c(-c3ccc(-c4ccc(O[C@H]5CC[C@H](C(=O)O)CC5)nc4)nc3)nc2n1
4,3.53,O=C(O)[C@H]1CC[C@@H](Oc2ccc(-c3ccc(-c4nc5ccc(Cl)cc5[nH]4)cn3)cn2)CC1
5,2.48,COc1ccc2[nH]c(-c3ccc(-c4ccc(O[C@H]5CC[C@@H](C(=O)O)CC5)nc4)nc3)nc2n1
6,1.34,O=C(O)[C@H]1CC[C@H](Oc2ccc(-c3ccc(-c4nc5ccc(Cl)cc5[nH]4)cn3)cn2)CC1
7,1.23,O=C(O)[C@H]1CC[C@H](Oc2ccc(-c3ccc(-c4nc5ccc(C(F)(F)F)cc5[nH]4)cn3)cn2)CC1
8,1.09,O=C(O)[C@H]1CC[C@@H](Oc2ccc(-c3ccc(-c4nc5ccc(C(F)(F)F)cc5[nH]4)cn3)cn2)CC1
9,0.772,O=C(O)[C@H]1CC[C@@H](Oc2ccc(-c3ccc(-c4nc5ccc(OC(F)(F)F)cc5[nH]4)cn3)cn2)CC1
10,0.293,O=C(O)C[C@H]1CC[C@H](c2ccc(-c3ccc(-c4nc5ccc(C(F)(F)F)cc5[nH]4)cn3)cc2)CC1
11,0.167,O=C(O)C[C@H]1CC[C@H](c2ccc(-c3ccc(-c4nc5ccc(Cl)cc5[nH]4)cn3)cc2)CC1
